In patent US6706683B1, “Method for controlling the release of granules” (Asahi Kasei Pharma Corporation, priority 1998, dated 2004):

B1: calgranulin A: calcium-binding protein with a molecular weight of about 8 kD; SEQ ID NOS 1 and 3 (protein, listed as Homo sapiens)
chain: MLTELEKALNSIIDVYHKYSLIKGNFHAVYRDDLKKLLETECPQYIRKKGADVWFKELDINTDGAVNFQEFLILVIKMGVAAHKKSHEESHKE
B2: calgranulin B: calcium-binding protein with a molecular weight of about 14 kD; SEQ ID NOS 2 and 4 (protein, listed as Homo sapiens)
chain: MTCKMSQLERNIETIINTFHQYSVKLGHPDTLNQGEFKELVRKDLQNFLKKENKNEKVIEHIMEDLDTNADKQLSFEEFIMLMARLTWASHEKMHEGDEGPGHHHKPGLGEGTP

Tests used:
neutrophils = test: Screening of samples in calgranulin-stimulated elastase secretion from permeabilized neutrophils (Example 3); type: cell-based, human; settings: sample 30 μM; for Amount of secretion (%): elastase, control without sample = 100%, calcium chloride 1 μM plus calgranulin (type and concentration not given); for effect on elastase (granule) secretion from neutrophils, in words: calgranulin A activated system
human neutrophils [1] = test: Elastase secretion from permeabilized human neutrophils on addition of calgranulin and calcium chloride (Example 1); type: cell-based; settings: 3 μM calgranulin, 1 μM calcium chloride, digitonin-permeabilized neutrophils, 37° C. 5 minutes
Method: A neutrophil suspension was prepared from blood collected from human vein according to the method described in Biological Chemistry Experiment Lecture, second series, No. 8, Blood, Vol. 2, 679-685). The neutrophil suspension was adjusted to a concentration of 1×10^7 cells/ml in a plastic test tube using a permeabilized buffer (PB) (30 mM HEPES, 100 mM KCl, 20 mM NaCl, 1 mM EGTA, pH 7.0) and incubated at 37° C. for 10 minutes. Digitonin (Sigma company) was added to the neutrophil suspension to a final concentration of 5-7.5 μg/ml and the mixture was incubated at, 37° C. for 15 minutes. The neutrophil suspension was centrifuged at 1200 rpm for 5 minutes. After discarding supernatant, precipitated neutrophils were re-suspended in PB to prepare a permeabilized neutrophil suspension (cell concentration: 1×10^7/ml).
The permeabilized neutrophil suspension was added to a 96-well immunoplate, 200 μl per well, and incubated for at 37° C. 15 minutes. […]
The 96-well immunoplate was centrifuged at 1200 rpm for one minute at 4° C. using a centrifugation container for immunoplates. […] Then, absorbance at 405 nm was measured using a microplate reader.

human neutrophils [2] = test: Lactoferrin secretion from permeabilized human neutrophils on addition of calgranulin and calcium chloride, ELISA (Example 2); type: cell-based; settings: 3 μM calgranulin, 1 μM calcium chloride, digitonin-permeabilized neutrophils, 37° C. 5 minutes
Method: A neutrophil suspension was prepared from blood collected from human vein according to the method described in Biological Chemistry Experiment Lecture, second series, No. 8, Blood, Vol. 2, 679-685). The neutrophil suspension was adjusted to a concentration of 1×10^7 cells/ml using PB in a plastic test tube and incubated at 37° C. for 10 minutes. Digitonin (Sigma company) was added to the neutrophil suspension to a final concentration of 5 μg/ml and the mixture was incubated at 37° C. for 15 minutes.
The neutrophil suspension was centrifuged at 1200 rpm for 5 minutes. After supernatant was discarded, precipitated neutrophils were re-suspended in PB to prepare a permeabilized neutrophil suspension (cell concentration: 1×10^7 cells/ml). The permeabilized neutrophil suspension was added to a 96-well immunoplate, 200 μl per well, and incubated at 37° C. for 15 minutes. Next, an aqueous solution of calcium chloride (final concentration: 1 μM) and calgranulin A, calgranulin B, or a equimolar mixture of calgranulin A and calgranulin B (each to a final concentration of 0 μM, 0.3 μM, 1 μM, or 3 μM) were added, and the resulting mixtures were incubated at 37° C. for 5 minutes. The 96-well immunoplate was centrifuged at 1200 rpm for one minute at 4° C. ELISA-kit (OXIS Co.) was used for the determination of lactoferrin. […]

Molecule | Amount of secretion (%) (neutrophils) | effect on elastase (granule) secretion from neutrophils, in words (neutrophils) | amount of elastase secretion, assuming secretion in the absence of calgranulin is 1 (human neutrophils [1]) | amount of lactoferrin secretion, assuming secretion in the absence of calgranulin is 1 (human neutrophils [2])
COc1ccc(N(CCCCCCCN2CCNCC2)Cc2ccccc2)cc1.Cl.Cl.Cl [Compound 2, N-benzyl-N-(4-methoxyphenyl)-7-piperazinylheptylamine trihydrochloride] | 51% | remarkably controlled granule secretion | – | –
COc1ccc(CN(CCCCCCCN2CCNCC2)c2ccc(OC)cc2)cc1.Cl.Cl.Cl [Compound 1, N-(4-methoxybenzyl)-N-(4-methoxyphenyl)-7-piperazinylheptyl amine trihydrochloride] | 61% | remarkably controlled granule secretion | – | –
CCCCCCC(CC)=C(c1ccc(O)cc1)c1ccc(O)cc1 [Compound 3, 1,1-(di-4-hydroxyphenyl)-2-ethyl-1-octaene] | 151% | remarkably increased the amount of secretion | – | –
B1 | – | – | about eight | about six
B2 | – | – | about seven | about five
